# Experimental data: patent US20160175328A1, “COMPOSITIONS AND TREATMENTS OF HEART FAILURE IN NON-HUMAN MAMMAL ANIMALS” (CEVA SANTE ANIMALE SA, priority 2008, published 2016)
# “Also recorded” adds a separate entry of the source.
# Assays:
# [1] = system: dogs in hyperaldosteronemia; assay: Model for assessing the anti-aldosterone activity (urinary Na/K after aldosterone injection); type: in vivo, dog; conditions: for Urine flow rate: aldosterone treatment or aldosterone with spironolactone; for Urine Volume / log (Na × 10/K) / K / Na: N 15; for K / Na: urine; for reversal of the effect of aldosterone on the log ([Na+]urinary×10/[K+]urinary): first 6 hours and 12 hours after dosage
# Description: They have been tattooed in advance for easy identification and situated in stainless steel individual boxes.
# A preliminary study was performed in order to determining the ED80 value for the natriuretic effect of aldosterone on its own.
# The dogs described above were allocated to different treatment groups (A, B, C, D, and E) and a rest period was left between treatments.
# A negative control group A only received the pharmaceutical excipient. The positive control group B only received 3 μg/kg of aldosterone. […] 200 g food was then given immediately after treatment.
# The samples were frozen and kept in the dark at approx. −80° C. […] Also, the urine was collected during the time periods ranging from T0-T6h; T6h-T12h and T12h-T24h.
# After calibration and count, the quantity of aldosterone present in the sample was thus determined once counted.
# The sodium and potassium contents in urines were determined using […]. […] According to this method 500 μL plasma were mixed with ethyl acetate (80/20, V/V) as solvents. […] The compounds and the internal standard (i.e. methyl-testosterone) were separated on a Kromasil C18 column.
# A statistical analysis was performed with the STATGRAPHICS Plus version 4.1 software (Manugestics, Inc., Rockville, Md., U.S.A.). The results were presented such as averages±SD; p<0.05 is considered as significant.
# [2] = system: dogs affected by heart failure; assay: Clinical studies of spironolactone plus ACEI in dogs affected by heart failure; type: in vivo, dog; conditions: for reduction of the risk of mortality: oral spironolactone 2 mg/kg/day and a ACEI vs placebo and a ACEI; for Survival probability (absence of mortality): over 15 months (14-15 months), Placebo + ACEI 74%
# Description: Multicentre, randomised, double-blind placebo-controlled clinical studies were conducted. An example of study concerned 221 dogs, the diagnosis of heart failure relying on persisting symptoms of cardiomegaly or cardiomyopathy after a first ACEI treatment. […] The 112-dog placebo group received a placebo in combination with an ACEI (for instance benazepril chlorhydrate in a dose of 0.25 mg/kg/day).
# For gauging the effects of the treatment, both groups were examined five times, i.e., on the first day of treatment (D1), then on the 84th day (D84), […], 252nd day (D252) and 336th day (D336). This examination consisted of a clinical examination of the dogs, urine and blood analyses, and a radiograph. Moreover, an echocardiograph was taken on days D1, D168 and D336.
# Also, the effects of the treatment were assessed on the symptoms such as cough and mobility, as well as on the prevention of symptoms such as dyspnoea, pulmonary edema, and tolerance to effort.
# [3] = Pharmacokinetic study with 22-14C spironolactone, rat; type: in vivo; conditions: rats, after 4 hour oral administration of spironolactone
# [4] = Pharmacokinetic study with 22-14C spironolactone, monkey; type: in vivo; conditions: monkeys, after 4 hour oral administration of spironolactone
# [5] = system: patients affected by severe heart failure; conditions: 25 mg spironolactone with ACEI, loop diuretics, sometimes digoxin; 284 dead of 822; placebo group 46%; cited from earlier work
# [6] = Plasmatic potassium (kalemia) measured during the clinical studies; type: in vivo, dog; conditions: for Low and transient hyperkalemia (5.9 to 6.4 mmol/L), cases: group on spironolactone
# Description: The plasmatic potassium concentrations (mmol/L) were measured during the treatments. […] Only sporadic case of low or moderate hyperkalemia could be observed and these events were transient. Indeed, these hyperkalemia events could only be observed a couple of times during examinations, and some of them were present on day D1, before the beginning of the treatment.
# [7] = Pharmacokinetic study with 22-14C spironolactone, dog; type: in vivo; conditions: dogs, after 4 hour oral administration of spironolactone
# [8] = group B, dosage 0, aldosterone 3 μg/kg
# [9] = group C, spironolactone dosage 0.8, aldosterone 3 μg/kg
# [10] = group D, spironolactone dosage 2, aldosterone 3 μg/kg
# [11] = group E, spironolactone dosage 8, aldosterone 3 μg/kg
smiles,measurement,setting,value
C[C@]12CCC(=O)C=C1CC[C@@H]1[C@@H]2[C@@H](O)C[C@]2(C=O)[C@@H](C(=O)CO)CC[C@@H]12 [Aldosterone],increase of the urinary levels of K,[1]; aldosterone on its own,25%
same,reduction of the elimination of Na,[1]; aldosterone on its own,approx. 65%
same,Urine flow rate,[1],not significantly modified
same,Urine Volume,[1]; [8],115 ± 109 mL
same,log (Na × 10/K),[1]; [8],0.70 ± 0.22
same,K,[1]; [8],116.6 mmol/L
same,Na,[1]; [8],56.3 ± 29.9 mmol/L
"CC(=O)S[C@@H]1CC2=CC(=O)CC[C@]2(C)[C@H]2CC[C@@]3(C)[C@@H](CC[C@@]34CCC(=O)O4)[C@H]12 [Spironolactone, 7α-acetylthio-3-oxo-17α-pregn-4-ene-21,17-carbolactone]",morbidity-mortality rates,"[2]; 14-15 month, spironolactone 2 mg/kg/day + ACEI, against 25%",11%
same,mortality rates,"[2]; after 14-15 months, spironolactone 2 mg/kg/day + ACEI, reference group 20%",6%
same,survival probabilities,"[2]; dogs treated as of stage I of heart failure, approx. 3.5 years, spironolactone 2 mg/kg/day + ACEI, against 53%",100%
same,survival probabilities,"[2]; duration of 3 years, spironolactone 2 mg/kg/day + ACEI, reference group 64%",80%
same,"clinical symptoms (cough, mobility, dyspnoea, pulmonary edema, tolerance to effort, syncopes)",[2]; group of dogs on spironolactone vs control group,improved symptoms such as cough and mobility were observed
same,reduction of the risk of mortality,[2]; over 3 years,59%
same,reduction of the risk of mortality,[2]; over 14-15 months,65%
same,Survival probability (absence of mortality),"[2]; spironolactone 2 mg/kg/day + ACEI, 109 dogs",91%
same,Survival probability (absence of mortality),"[2]; spironolactone 2 mg/kg/day + ACEI, 109 dogs, listed as spironolactone",91%
same,“survival” probability (absence of morbi-mortality),"[2]; over 15 months, spironolactone 2 mg/kg/day + ACEI, 109 dogs, Placebo + ACEI 67%",84%
same,plasma radioactivity percentage,[3],66%
same,plasma radioactivity percentage,[4],33%
same,dead (mortality) in the spironolactone group,[5],35%
same,ED50,"[1]; Canis lupus familiaris, read-out: ED50 (quantity of spironolactone to reach 50% of the maximum response), sigmoid Emax model, log ratio 0 to 6 hours",1.09 mg/kg
same,Urine flow rate,[1],not significantly modified
same,Emax-E0,"[1]; corresponded to 100% amplitude, E0 (control group) 0.527",0.5625
same,Urine Volume,[1]; [9],148 ± 154 mL
same,log (Na × 10/K),[1]; [9],0.85 ± 0.24
same,Urine Volume,[1]; [10],162 ± 103 mL
same,log (Na × 10/K),[1]; [10],1.02 ± 0.21
same,Urine Volume,[1]; [11],190 ± 195 mL
same,log (Na × 10/K),[1]; [11],1.14 ± 0.18
same,elimination (excretion) of Na,"[1]; higher dose of spironolactone, 8 mg/kg",other increases in the elimination of Na were observed; also recorded: Further increases in Na excretion
same,Emax (maximum possible effect of spironolactone),"[1]; log ([Na+]urinary×10/[K+]urinary), Emax model",1.089
same,ED50 (quantity of spironolactone to reach 50% of the maximum response),"[1]; sigmoid Emax model, log ratio 0 to 6 hours",1.08 ± 0.28 mg/kg
same,natriuretic responses,[1]; spironolactone 0.8 mg/kg,no effect on certain dogs
same,natriuretic responses,[1]; spironolactone 2 mg/kg,completely reversed
same,reversal of the effect of aldosterone on the log ([Na+]urinary×10/[K+]urinary),[1]; spironolactone 2 mg/kg,complete reversal
same,reversal of the effect of aldosterone on the log ([Na+]urinary×10/[K+]urinary),[1]; spironolactone 8 mg/kg,complete reversal
same,Potassium excretion,"[1]; spironolactone 0.8, 2 and 8 mg/kg with aldosterone",spared up to 2 mg per kg but not after that
same,E(2mg/kg)−E0,[1]; spironolactone approx. 2 mg/kg,0.4933
same,K,[1]; [9],91.8 mmol/L
same,Na,[1]; [9],67.6 ± 49.3 mmol/L
same,K,[1]; [10],74.2 mmol/L
same,Na,[1]; [10],74.9 ± 40.2 mmol/L
same,K,[1]; [11],88.9 mmol/L
same,Na,[1]; [11],111.1 ± 67.9 mmol/L
same,"Low and transient hyperkalemia (5.9 to 6.4 mmol/L), cases",[6]; 2-month clinical study (4 analyses),3
same,"Low and transient hyperkalemia (5.9 to 6.4 mmol/L), cases",[6]; 3-month clinical study (6 analyses),5
same,"Low and transient hyperkalemia (5.9 to 6.4 mmol/L), cases",[6]; 12-month clinical study (5 analyses),3
same,variation in kalemia,"[6]; daily dose of spironolactone of 2 mg/kg/day, dogs",did not cause any variation in kalemia or only low transient variations in kalemia
same,"progression of average plasmatic potassium (kalemia), FIG. 9",[6]; spironolactone 2 mg/kg/day and ACEI vs placebo and ACEI,stable kalemia
same,plasma radioactivity percentage,[7],76%
